Results published in patent publication US20110313156A1 (BOEHRINGER INGELHEIM INTERNATIONAL GMBH, priority 2008, published 2011).

These compounds were tested against T1, His6-PDK1 (aa 52-556) (Homo sapiens, UniProt O15530) (assay: PDK1 kinase assay III (with Tween 20)). Details: compound at 10 μM; PDK1 kinase assay III (values without asterisk); read-out: % CTL (residual activity of the enzyme relative to DMSO control).
T1 construct: 15 μL His6-PDK1 (aa 52-556) 3.33 ng/well); host or cells: baculovirus-infected insect cells
T1 sequence (O15530 52-556): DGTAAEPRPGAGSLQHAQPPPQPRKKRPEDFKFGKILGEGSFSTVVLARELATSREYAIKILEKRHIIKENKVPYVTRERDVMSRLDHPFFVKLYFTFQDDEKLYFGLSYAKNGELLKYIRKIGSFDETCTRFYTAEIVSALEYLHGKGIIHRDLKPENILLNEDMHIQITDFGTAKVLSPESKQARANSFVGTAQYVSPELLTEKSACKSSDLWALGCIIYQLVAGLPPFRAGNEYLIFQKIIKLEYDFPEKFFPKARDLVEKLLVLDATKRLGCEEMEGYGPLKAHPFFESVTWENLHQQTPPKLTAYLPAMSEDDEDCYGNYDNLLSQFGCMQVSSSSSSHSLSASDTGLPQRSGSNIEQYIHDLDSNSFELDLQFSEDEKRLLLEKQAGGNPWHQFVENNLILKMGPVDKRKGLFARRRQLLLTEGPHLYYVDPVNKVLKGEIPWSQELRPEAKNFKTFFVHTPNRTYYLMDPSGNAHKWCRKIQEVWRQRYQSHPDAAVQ
Assay type: biochemical
Method: Purified enzyme may be obtained for example from the University of Dundee, Scotland.
Another PDK1 assay was developed which by comparison with PDK1 assay 1 additionally contains Tween 20:
The final concentration of Tween 20 is 0.005%.
The reaction is started by adding the ATP solution and the mixture is incubated for 90 min at ambient temperature; at the start of the reaction the dishes are shaken gently. The reaction is stopped by the addition of 50 μL/well of 500 mM phosphoric acid (H3PO4) and incubated for about 20 min at ambient temperature. […] The measured data are evaluated using Graphpad Prism software.
The % CTL values indicate the residual activity of the enzyme after the addition of the inhibitory compound in the solvent DMSO in relation to the enzyme activity in the solvent DMSO without the addition of a compound (control). The majority of the values were determined using the PDK1 kinase assay III described hereinbefore. The values marked with an asterisk (* or**) were determined using the PDK1 kinase assay II described hereinbefore (one asterisk→incubation for 24 h; two asterisks→incubation for 5 min)

Compound	remaining activity at 10 µM
Cc1c(C(=O)NCC#Cc2ccc3nc(Nc4ccc(NC5CCN(C)CC5)c(F)c4)ncc3c2)c(=O)n(Cc2ccc(F)c(F)c2)n1C [III-32, 2-(3,4-difluorobenzyl)-N-{3-[2-({3-fluoro-4-[(1-methylpiperidin-4-yl)amino]phenyl}amino)quinazolin-6-yl]prop-2-yn-1-yl}-1,5-dimethyl-3-oxo-2,3-dihydro-1H-pyrazole-4-carboxamide]	13.1%
Cc1c(C(=O)NCC#Cc2ccc3nc(Nc4ccccc4F)ncc3c2)c(=O)n(Cc2ccc(F)c(F)c2)n1C	17.1%
COCCCN(C)C(=O)c1ccc(Nc2ncc3cc(C#CCNC(=O)c4c(C)n(C)n(Cc5ccc(F)c(F)c5)c4=O)ccc3n2)cc1	16%
CN(C)Cc1ccc(Nc2ncc3cc(/C=C/CNC(=O)c4nc(Cl)cn(Cc5ccc(F)c(F)c5)c4=O)ccc3n2)cc1 [IV-61, 6-chloro-4-(3,4-difluorobenzyl)-N-{(2E)-3-[2-({4-[(dimethylamino)methyl]phenyl}amino)quinazolin-6-yl]prop-2-en-1-yl}-3-oxo-3,4-dihydropyrazine-2-carboxamide]	13.9%
Cc1c(C(=O)NCC#Cc2ccc3nc(Nc4ccc(N(C)C5CCN(C)CC5)cc4)ncc3c2)c(=O)n(Cc2ccc(F)c(F)c2)n1C [III-40, 2-(3,4-difluorobenzyl)-1,5-dimethyl-N-{3-[2-({4-[methyl(1-methylpiperidin-4-yl)amino]phenyl}amino)quinazolin-6-yl]prop-2-yn-1-yl}-3-oxo-2,3-dihydro-1H-pyrazole-4-carboxamide]	13.5%
COc1cc(Nc2ncc3cc(/C=C/CNC(=O)c4c(C)n(C)n(Cc5ccc(F)c(F)c5)c4=O)ccc3n2)ccc1C(=O)NC1CCN(C)CC1	10.2%
Cc1nc[nH]c1/C=C1\C(=O)Nc2cc(/C=C/CNC(=O)c3c(C)n(C)n(Cc4ccccc4)c3=O)ccc21 [I-39, 2-benzyl-1,5-dimethyl-N-[(2E)-3-{(3Z)-3-[(4-methyl-1H-imidazol-5-yl)methylidene]-2-oxo-2,3-dihydro-1H-indol-6-yl}prop-2-en-1-yl]-3-oxo-2,3-dihydro-1H-pyrazole-4-carboxamide]	18.6%
O=C(NCc1ccc(-c2cnc3[nH]ccc3c2)s1)c1cncn(Cc2ccc(F)c(F)c2)c1=O [IV-41, 1-(3,4-difluorobenzyl)-6-oxo-N-{[5-(1H-pyrrolo[2,3-b]pyridin-5-yl)thiophen-2-yl]methyl}-1,6-dihydropyrimidine-5-carboxamide]	24.4%
COCCNC(=O)c1ccc(Nc2ncc3cc(C#CCNC(=O)c4c(C)n(C)n(Cc5ccc(F)c(F)c5)c4=O)ccc3n2)cc1	20.1%
CN(C)Cc1ccc(-c2n[nH]c3cc(C#CCNC(=O)c4cncn(Cc5ccc(F)c(F)c5)c4=O)ccc23)cc1 [II-9, 1-(3,4-difluorobenzyl)-N-[3-(3-{4-[(dimethylamino)methyl]phenyl}-1H-indazol-6-yl)prop-2-yn-1-yl]-6-oxo-1,6-dihydropyrimidine-5-carboxamide]	10.7%
Nc1ncc2cc(C#CCNC(=O)c3cncn(Cc4ccc(F)c(F)c4)c3=O)ccc2n1 [III-42, N-[3-(2-aminoquinazolin-6-yl)prop-2-yn-1-yl]-1-(3,4-difluorobenzyl)-6-oxo-1,6-dihydropyrimidine-5-carboxamide]	14.7%
Cc1c(C(=O)NC/C=C/c2ccc3nc(Nc4ccc(NC5CCN(C)CC5)c(F)c4)ncc3c2)c(=O)n(Cc2ccc(F)c(F)c2)n1C [IV-55, 2-(3,4-difluorobenzyl)-N-{(2E)-3-[2-({3-fluoro-4-[(1-methylpiperidin-4-yl)amino]-phenyl}amino)quinazolin-6-yl]prop-2-en-1-yl}-1,5-dimethyl-3-oxo-2,3-dihydro-1H-pyrazole-4-carboxamide]	16.5%
COCCCN(C)C(=O)c1ccc(Nc2ncc3cc(C#CCNC(=O)c4cncn(Cc5ccc(F)c(F)c5)c4=O)ccc3n2)cc1 [III-104]	15.8%
CN1CCC(Nc2ccc(Nc3ncc4cc(C#CCNC(=O)c5cn(C)c(=O)n(Cc6ccc(F)c(F)c6)c5=O)ccc4n3)cc2F)CC1 [III-33, 3-(3,4-difluorobenzyl)-N-{3-[2-({3-fluoro-4-[(1-methylpiperidin-4-yl)amino]phenyl}amino)quinazolin-6-yl]prop-2-yn-1-yl}-1-methyl-2,4-dioxo-1,2,3,4-tetrahydropyrimidine-5-carboxamide]	22.8%
CN1CCC(N(C)c2ccc(Nc3ncc4cc(C#CCNC(=O)c5cncn(Cc6ccc(F)c(F)c6)c5=O)ccc4n3)cc2)CC1 [III-30, 1-(3,4-difluorobenzyl)-N-{3-[2-({4-[methyl(1-methylpiperidin-4-yl)amino]phenyl}amino)quinazolin-6-yl]prop-2-yn-1-yl}-6-oxo-1,6-dihydropyrimidine-5-carboxamide]	11.4%
Cc1c(C(=O)NC/C=C/c2ccc3nc(Nc4ccc(N(C)C5CCN(C)CC5)cc4)ncc3c2F)c(=O)n(Cc2ccc(F)c(F)c2)n1C [IV-36, 2-(3,4-difluorobenzyl)-N-{(2E)-3-[5-fluoro-2-({4-[methyl(1-methylpiperidin-4-yl)amino]phenyl}amino)quinazolin-6-yl]prop-2-en-1-yl}-1,5-dimethyl-3-oxo-2,3-dihydro-1H-pyrazole-4-carboxamide]	14.2%
O=C(NC/C=C/c1ccc2nc(Nc3ccncc3)ncc2c1)c1cncn(Cc2ccc(F)c(F)c2)c1=O	12.1%
Cn1c(=O)c(C#CCNC(=O)c2cncn(Cc3ccc(F)c(F)c3)c2=O)cc2cnc(Nc3ccccc3)nc21 [III-22, 1-(3,4-difluorobenzyl)-N-{3-[8-methyl-7-oxo-2-(phenylamino)-7,8-dihydropyrido-[2,3-d]pyrimidin-6-yl]prop-2-yn-1-yl}-6-oxo-1,6-dihydropyrimidine-5-carboxamide]	24.9%
CNc1ncc2cc(/C=C/CNC(=O)c3cncn(Cc4ccc(F)c(F)c4)c3=O)cc(OCCN)c2n1 [III-59]	18.3%
O=C1Nc2cc(/C=C/CNC(=O)c3cncn(Cc4ccc(F)c(F)c4)c3=O)ccc2/C1=C/c1cnc[nH]1 [I-2, 1-(3,4-difluorobenzyl)-N-{(2E)-3-[(3Z)-3-(1H-imidazol-5-ylmethylidene)-2-oxo-2,3-dihydro-1H-indol-6-yl]prop-2-en-1-yl}-6-oxo-1,6-dihydropyrimidine-5-carboxamide]	12.2%
CN1CCC(N(C)c2ccc(Nc3ncc4cc(/C=C/CNC(=O)c5cncn(Cc6ccc(F)c(F)c6)c5=O)ccc4n3)cc2)CC1 [IV-45, 1-(3,4-difluorobenzyl)-N-{(2E)-3-[2-({4-[methyl(1-methylpiperidin-4-yl)amino]-phenyl}amino)quinazolin-6-yl]prop-2-en-1-yl}-6-oxo-1,6-dihydropyrimidine-5-carboxamide]	15.3%
CN1CCC(NC(=O)c2ccc(Nc3ncc4cc(/C=C/CNC(=O)c5cncn(Cc6ccc(F)c(F)c6)c5=O)ccc4n3)cc2F)CC1	19.7%
O=C(NC/C=C/c1cc(OC2CCNCC2)c2nc(Nc3ccc(N4CCOCC4)cc3)ncc2c1)c1cncn(Cc2ccc(F)c(F)c2)c1=O	12.3%
Cc1c(/C=C/CNC(=O)c2cncn(Cc3ccc(F)c(F)c3)c2=O)c(=O)n(C(C)C)c2nc(Nc3ccc(N4CCOCC4)cc3)ncc12 [IV-38, 1-(3,4-difluorobenzyl)-N-{(2E)-3-[5-methyl-2-{[4-(morpholin-4-yl)phenyl]amino}-7-oxo-8-(propane-2-yl)-7,8-dihydropyrido[2,3-d]pyrimidin-6-yl]prop-2-en-1-yl}-6-oxo-1,6-dihydropyrimidine-5-carboxamide]	11.8%
Cc1c(C(=O)NCC#Cc2ccc3cn[nH]c3c2)c(=O)n(Cc2ccc(F)c(F)c2)n1C [II-3, 2-(3,4-difluorobenzyl)-N-[3-(1H-indazol-6-yl)prop-2-yn-1-yl]-1,5-dimethyl-3-oxo-2,3-dihydro-1H-pyrazole-4-carboxamide]	12.4%
Cc1nc[nH]c1/C=C1\C(=O)Nc2cc(/C=C/CNC(=O)c3cncn(Cc4ccc(F)c(F)c4)c3=O)ccc21 [I-4, 1-(3,4-difluorobenzyl)-N-[(2E)-3-{(3Z)-3-[(5-methyl-1H-imidazol-4-yl)methylidene]-2-oxo-2,3-dihydro-1H-indol-6-yl]prop-2-en-1-yl}-6-oxo-1,6-dihydropyrimidine-5-carboxamide]	16.4%
O=C(NCc1ccc(Nc2ncnc3[nH]c(-c4ccccc4)cc23)cc1)c1cncn(Cc2ccc(F)c(F)c2)c1=O [IV-24, 1-(3,4-difluorobenzyl)-6-oxo-N-{4-[(6-phenyl-7H-pyrrolo[2,3-d]pyrimidin-4-yl)amino]benzyl}-1,6-dihydropyrimidine-5-carboxamide]	15.7%
